Article PMC6273213, “Novel Triazole-Quinoline Derivatives as Selective Dual Binding Site Acetylcholinesterase Inhibitors” (Molecules, 2016)
Structures can show the parent of a compound that is named as a salt.

Tests used:
hAChE = target: T1, hAChE (Homo sapiens, UniProt P22303); experiment: biochemical; conditions: for inhibition at 100 µM: 100 μM compound, substrate ACThI; for inhibition at 100 µM / IC50: human recombinant hAChE; for IC50: at least six concentrations, read-out: IC50 ± SEM (μM) hAChE; for Ki: steady-state inhibition constant from replots of reciprocal plots, read-out: Ki ± SEM (μM) hAChE; for Mechanism Type hAChE: Lineweaver-Burk plots
T1 construct: purchased Sigma-Aldrich; host or cells: HEK 293 cells
Experimental: (§1) Buffer components and all of the chemicals used were all analytical grade materials, and were obtained from Sigma, Merck (Darmstadt, Germany), Synth (São Paulo, Brazil) or Acros (Geel, Belgium). The water used in all of the preparations was purified with a Millipore Milli-Q® system (Millipore, São Paulo, Brazil).
(§2) The ligand assays were carried out in accordance with the literature, albeit with some modifications. Briefly, the assays were carried out using a 96-well microplate with an Elisa microplate reader. To a final volume of 250 µL, each well was filled with: 125 µL of Ellman’s reagent (3 mM in […] phosphate buffer pH 7.4); 50 µL of buffer TRIS (50 mM, pH 8.0); 25 µL of enzyme solution at the final concentration 0.28 U/mL (in […] phosphate buffer pH 7.4); 25 µL of the ACThI (15 mM) for AChE and 25 µL of the BCThI (15 mM) for BChE; and 25 µL of each inhibitor sample (1 mM), final concentration at 100 µM. The microplate was shaken for 10 s followed by reading the absorbance at 412 nm at 30 s intervals for two minutes. The negative control (compound and absence of ACThI) and a positive control (ACThI and absence of compound) were carried out.
(§3) The assays were carried out in duplicate.
IC50 values were independently determined by performing rate measurements for at least six concentrations of the target inhibitor. The nonlinear regression parameters were calculated, and the IC50 was extrapolated.

hBChE = target: T2, hBChE (Homo sapiens, UniProt P06276); experiment: biochemical; conditions: 100 μM compound; substrate BCThI
T2 construct: hBChE EC 3.1.1.8, 50 units mg^−1 from human erythrocytes; purchased Sigma-Aldrich; host or cells: human erythrocytes
Experimental: as §1, §2, §3

T1 sequence (P22303 32-614): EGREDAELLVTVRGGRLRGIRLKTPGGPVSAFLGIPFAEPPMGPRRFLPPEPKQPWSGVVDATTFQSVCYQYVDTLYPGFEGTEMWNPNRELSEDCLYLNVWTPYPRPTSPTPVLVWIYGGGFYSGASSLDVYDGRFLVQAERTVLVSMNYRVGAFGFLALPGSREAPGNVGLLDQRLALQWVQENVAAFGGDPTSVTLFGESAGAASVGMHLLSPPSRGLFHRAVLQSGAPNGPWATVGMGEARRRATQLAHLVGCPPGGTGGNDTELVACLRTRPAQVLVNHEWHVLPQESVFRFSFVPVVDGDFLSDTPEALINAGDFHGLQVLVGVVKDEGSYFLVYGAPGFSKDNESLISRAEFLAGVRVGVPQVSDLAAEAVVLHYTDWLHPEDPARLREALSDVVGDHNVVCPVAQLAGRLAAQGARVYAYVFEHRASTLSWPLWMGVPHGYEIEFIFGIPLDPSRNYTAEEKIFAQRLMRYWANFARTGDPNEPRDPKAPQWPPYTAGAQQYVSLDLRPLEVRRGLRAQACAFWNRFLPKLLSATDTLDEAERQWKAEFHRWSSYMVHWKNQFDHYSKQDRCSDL
T2 sequence (P06276 29-602): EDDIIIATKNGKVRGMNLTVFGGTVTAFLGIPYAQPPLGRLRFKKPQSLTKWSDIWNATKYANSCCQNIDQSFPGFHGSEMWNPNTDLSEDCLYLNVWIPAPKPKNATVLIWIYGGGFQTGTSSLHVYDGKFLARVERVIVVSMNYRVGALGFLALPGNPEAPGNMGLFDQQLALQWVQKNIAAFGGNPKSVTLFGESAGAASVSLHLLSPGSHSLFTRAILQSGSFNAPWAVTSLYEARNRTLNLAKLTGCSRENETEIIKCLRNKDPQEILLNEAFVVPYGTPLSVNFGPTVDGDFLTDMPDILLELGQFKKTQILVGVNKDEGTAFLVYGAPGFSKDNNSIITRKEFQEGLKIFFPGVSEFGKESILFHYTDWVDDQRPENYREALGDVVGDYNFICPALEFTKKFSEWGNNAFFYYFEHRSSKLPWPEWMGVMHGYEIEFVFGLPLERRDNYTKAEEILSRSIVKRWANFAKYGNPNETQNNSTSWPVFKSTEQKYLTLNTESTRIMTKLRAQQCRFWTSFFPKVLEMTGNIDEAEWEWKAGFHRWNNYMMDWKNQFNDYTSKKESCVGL

| Compound | inhibition at 100 µM (hAChE) | IC50 (hAChE) | Ki (hAChE) | inhibition at 100 µM (hBChE) | Mechanism Type hAChE (hAChE) |
| --- | --- | --- | --- | --- | --- |
| COc1cc2c(cc1OC)C(=O)/C(=C/c1ccc(-c3cn(-c4ccnc5ccccc45)nn3)cc1)C2 [3a, (E)-5,6-Dimethoxy-2-(4-(1-(quinolin-4-yl)-1H-1,2,3-triazol-4-yl)benzylidene)-2,3-dihydro-1H-inden-1-one] | 29% | 128 ± 25 µM | 185 ± 29 µM | 0% | – |
| COc1cc2c(cc1Cl)C/C(=C\c1ccc(-c3cn(-c4ccnc5ccccc45)nn3)cc1)C2=O [3c, (E)-5-Chloro-6-methoxy-2-(4-(1-(quinolin-4-yl)-1H-1,2,3-triazol-4-yl)benzylidene)-2,3-dihydro-1H-inden-1-one] | 5.4% | – | – | 6.2% | – |
| Cc1ccc2c(c1)C(=O)/C(=C/c1ccc(-c3cn(-c4ccnc5ccccc45)nn3)cc1)C2 [3d, (E)-6-Methyl-2-(4-(1-(quinolin-4-yl)-1H-1,2,3-triazol-4-yl)benzylidene)-2,3-dihydro-1H-inden-1-one] | 9.1% | – | – | 0% | – |
| COc1cc2c(cc1OC)C(=O)C(CC1CCN(Cc3ccccc3)CC1)C2 (stereo not shown) [Donepezil, donepezil hydrochloride monohydrate, reference compound] | – | – | – | 11.1% | – |
| O=C1C(=Cc2ccc(-c3cn(-c4ccnc5ccccc45)nn3)cc2)Cc2cc3c(cc21)OCO3 [3b, (E)-5,6-Methilenedioxy-2-(4-(1-(quinolin-4-yl)-1H-1,2,3-triazol-4-yl)benzylidene)-2,3-dihydro-1H-inden-1-one] | 0% | – | – | 5.2% | – |
| O=C1/C(=C/c2ccc(-c3cn(-c4ccnc5ccccc45)nn3)cc2)Cc2ccc(Cl)cc21 [3e, (E)-6-Chloro-2-(4-(1-(quinolin-4-yl)-1H-1,2,3-triazol-4-yl)benzylidene)-2,3-dihydro-1H-inden-1-one] | 37.7% | 147 ± 15 µM | 530 ± 150 µM | 0% | – |
| COc1ccc2c(c1)C(=O)/C(=C/c1ccc(-c3cn(-c4ccnc5ccccc45)nn3)cc1)C2 [3h, (E)-6-Methoxy-2-(4-(1-(quinolin-4-yl)-1H-1,2,3-triazol-4-yl)benzylidene)-2,3-dihydro-1H-inden-1-one] | 55.7% | 109 µM | 245 ± 70 µM | 0% | mixed-type |
| COc1ccc2c(c1)C/C(=C\c1ccc(-c3cn(-c4ccnc5ccccc45)nn3)cc1)C2=O [3g, (E)-5-Methoxy-2-(4-(1-(quinolin-4-yl)-1H-1,2,3-triazol-4-yl)benzylidene)-2,3-dihydro-1H-inden-1-one] | 48.1% | 114 ± 10 µM | 220 ± 60 µM | 0.2% | mixed-type |
